Results: patent US6465527B1, “Iodinated hydrocarbon pesticide” (priority 1999, dated 2002)

Columns and labels:
Format in all cases: in vivo
[1] = system: German cockroach, Blattella germanica (L.); assay: Fumigant toxicity in sealed glass jar, German cockroach; details: 30-60 adult males
[2] = system: reniform nematode [Rotylenchulus reniformis]; assay: Greenhouse nematicide test in cotton field soil, covered and uncovered pots (Experiment 6, FIGS. 1-4)
Text: FIGS. 2 and 3 illustrate the effectiveness of the diiodoethane and diiodopropane in eliminating the nematode (Rotylenchulus reniformis) from a soil sample. The “x” axis on the top row illustrates the quantity of iodinated hydrocarbon in milligrams per kilogram of soil. The next two rows below the “x” axis indicate the number of nematodes per 100 milliliters of soil, which is also indicated on the “y” axis. In FIG. 2, 1,2-diiodoethane was applied to the soil both in a covered state and an uncovered state. […] This is believed to be so because of the volatility of 1,2 diiodoethane, wherein the cover slows down the rate at which the compound evaporates into the atmosphere.
In this experiment, the pesticidal and herbicidal properties of volatile, low molecular weight, iodinated hydrocarbons were investigated. The relative nematicidal efficacy of iodomethane [C1], 1,2-diiodoethane [C2], 1,3-diiodopropane [C3] and 1,4-diiodobutane [C4] was studied in greenhouse experiments with soil from a cotton field infested with the reniform nematode [Rotylenchulus reniformis]. The chemicals were obtained from Aldrich, Milwaukee, U.S.A. Emulsifiable concentrates of the compounds were prepared by dilution in acetone containing an emulsogen.
For each chemical, an aqueous emulsion with 0.2% [w/w] of the compound was prepared and was applied to soil at rates of 2, 4, 6, 8, 10, and 12 mgs a.i./Kg soil. The treated soil was mixed and transferred to 1L capacity 10-cm diameter cylindrical pots. Pots with untreated soil [control] and with treated soil were placed on a greenhouse bench in a randomized complete block design. Each treatment was represented by 14 replications [pots], one half of which were left uncovered, and the other 7 were covered with polyethylene plastic bags [approx. 1 mil thickness] retained with a rubber around the pots. Soil samples for nematological analysis [salad bowl incubation technique] were collected 7-10 days after application of the materials. […] In covered pots, applications of the material were particularly effective resulting in 100% kill with the 10 and 12 mg rates. All dosages of C3 and C4 eliminated the nematode in covered pots. […] In a greenhouse experiment of similar design to the nematicide experiments, the C3 and C4 emulsions were applied at rates of 2-20 mgs a.i./Kg soil to a soil infested with crabgrass [Digitaria sanguinalis], purple nutsedge [Cyperus rotundus], Jimson weed [Datura stramonium] and a variety of other weed species. All pots were covered, and the number of weeds were counted 7, 14 and 30 days after application of the chemicals.

[3] = system: American cockroach, Periplaneta americana (L.); assay: Fumigant toxicity in sealed glass jar, American cockroach; details: 8-36 adult males
[4] = system: Meloidogyne arenaria, Pratylenchus brachyurus, and Paratrichodorus christiei; assay: Nematodes in roots and soils at end of Experiment 5 (all nematodes); details: after eight weeks of growth
Description: In this experiment, the nematotoxic properties of ethylene diiodide were compared to that of methyl iodide. The nematicidal efficacies of iodomethane [IM] and ethylene diiodide [EDI] were compared in a greenhouse experiment using field soil infested with Meloidogyne arenaria, Pratylenchus brachyurus, and Paratrichodorus christiei.
Each compound was added to soil at rates of 100, 200, 300 and 400 mg s/kg of soil. The soil was potted and kept moist for two weeks when it was planted with ‘Brim’ soybean after taking samples for nematological analyses. After eight weeks of growth, the plants were removed from the pots and soil samples taken. Data was collected on weights of fresh roots and shoots, general appearance of roots [root condition index] and root gall formation by M. arenaria. All EDI rates eliminated M. arenaria juveniles [J2] and populations of the other nematodes in the preplant samples; IM reduced J2 numbers by 50-70%, eliminated P. christiei with the 400 mg rate, but had no effect on P. brachyurus. […] The general appearance of roots was improved by EDI at rates ≦300 mg, but MI had no effect on the variable. […] M. arenaria J2 populations in roots were reduced by 60-70% by MI treatments, but the compound had no effect on root populations of P. brachyurus. MI had no effect on J2 populations in the final soil samples, although it suppressed P. christiei, by 50-70%.

[5] = system: cyst [Heterodera glycines]; assay: Greenhouse nematicide test, iodinated C1-C3 hydrocarbons (Experiment 4); details: 0.4 ml rate
Description: In this experiment, the nematicidal properties of low molecular weight iodinated hydrocarbons were investigated. The nematicidal properties of iodinated C1-C3 hydrocarbons were evaluated in greenhouse experiments with field soil infested with root-knot [Meloidogyne arenaria] and cyst [Heterodera glycines] nematodes. lodomethane, di-iodomethane, iodoethane, di-iodoethane, and 1-iodopropane were added to soil at rates of 0.1, 0.2 and 0.4 ml/kg soil.
The treated soil was kept moist for 10 days when soil samples were taken for nematode analysis and ‘Brim’ soybean [Glycine max] planted. Soybeans were allowed to grow for 8 weeks and then were removed from the soil to determine plant growth, root-knot indices and the number of galls generated by M arenaria. […] All compounds except 1-iodopropane increased fresh shoot weight when applied at ≧0.1 ml/kg soil.

Compound: ICCI [1,2-diiodoethane]
- % Mortality after 1 h exposure, German cockroach ([1]; 1 h exposure): 40%
- % Mortality after 24 h exposure, German cockroach ([1]; 24 h exposure): 10%
- Numbers of the nematode in soil in response to rates ([2]; 2-12 mgs a.i./Kg soil): declined linearly
- Kill of the nematode ([2]; covered pots, 10 and 12 mg rates): 100%
- Effectiveness covered versus uncovered at eliminating the nematodes (FIG. 2) ([2]; covered state and uncovered state): covered samples were more effective
- % Mortality after 1 h exposure, American cockroach ([3]; 1 h exposure): 8%
- % Mortality after 24 h exposure, American cockroach ([3]; 24 h exposure): 100%
- Nematodes in roots and soils at end of experiment [4]: no nematodes
- H. glycines J2 populations in soil [5]: eliminated
